Measurements: patent US10449183B2, “Methods for inhibiting preterm labor and uterine contractility disorders and preventing cervical ripening” (DIGNITY HEALTH, priority 2010, dated 2019)
Entries after “also recorded” stand apart in the source; their conditions may differ.

Assays:
pregnant rats = assay: Time of delivery of timed-pregnant rats (hours after 8 a.m. of day 22 of gestation); format: in vivo, Sprague-Dawley rats; settings: for delay of delivery compared to vehicle control: from day 13
Description: (§1) Nonpregnant and timed-pregnant Sprague-Dawley rats (200-250 g) from Charles-River Laboratories (Wilmington, Mass., USA) were delivered to animal care facilities on day 12 of gestation (day 1 being the day when a sperm plug was observed). The animals were housed separately, with free access to food and water and maintained on a constant 12-hour light-dark cycle. Control pregnant rats were spontaneously delivering on day 22 and 23 of gestation. For the measurements with the collascope the animals were anaesthetized (interperitoneal (i.p). injection) with a combination of xylazine (Gemini, Burns Veterinary Supply Inc, Rockville Center, N.Y., USA) and ketamine HCl (Ketaset; Fort Dodge Laboratories Inc, Fort Dodge, Iowa, USA). The animals were randomly allocated to one of the groups and sacrificed by carbon dioxide inhalation on day 3, 5, 7 and 10 postpartum or on day 25 of pregnancy in the groups with delayed delivery. All procedures were approved by the Animal Care and Use Committee of the St. Joseph's Hospital and Medical Center in Phoenix.
(§2) Prior to any treatment LIF measurements were made in control rats throughout pregnancy and postpartum to estimate the LIF profile during gestation (see FIG. 1). Pregnant rats (N=6/group) were treated (see FIG. 2), when not otherwise mentioned (see FIG. 3), from day 13 of pregnancy until delivery. Single daily treatments were performed at 8 a.m. and twice a day treatments at 8 a.m. and 8 p.m. All single injections (4 mg P4, 10 mg 17P, 2 mg promegestone (R5020)) were by the subcutaneous route (s.c.) in sesame oil (0.2 ml), which was also used for the controls. Vaginal gels were applied twice a day with a blunt ball-top needle deep into the vagina. Crinone was used for the P4 vaginal group (equivalent volumes of Crinone were used for 2-15 mg P4/treatment), all data presented show the results of the highest dose (total daily dose of 30 mg P4=⅓ of a applicator of 8% Crinone that contains 90 mg P4). For the vaginal promegestone (R5020) group micronized promegestone (R5020) (1 mg/treatment) was mixed into 0.18 ml of Replens. The control rats for the vaginal groups were treated with Replens (0.18 ml/treatment). For oral P4 treatments (15 mg, bid, vehicle sesame oil or H2O, volume 1 ml) gavage was used. For topical P4 treatment (15 mg, bid, P4 in 1 ml sesame oil, fish oil or in Replens) the drug was applied on the back of animals that were shaved on day 13, 17 and 21. In some animals (N=6) RU-486 (3 mg in 0.2 ml sesame oil) was injected subcutaneously once on day 16 of gestation.
Times of delivery (see also FIG. 4) of controls and various treatment groups were determined as hours after 8 a.m. of day 22 of gestation (FIG. 5). The expulsion of one pup was defined as delivery.
The cervical LIFs obtained at different times of gestation (FIG. 1) were compared using one-way analysis of variance (ANOVA) and multiple pairwise comparison procedures (Holm-Sidak). Student's t-test was used to compare the LIF results of a treatment group to its specific control group at any time in gestation and postpartum and also to determine the differences in delivery times (FIGS. 2, 3 and 5). A two-tailed probability value of P<0.05 was considered statistically significant.
FIG. 15 depicts delay of delivery times in timed pregnant rats treated with progesterone (P4) with different routes and vehicles. Treatment was started on day 13 of gestation and continued until delivery of pups or until delivery was blocked at […] (day 25) past day 22 of gestation. 8 am on day 22 is noted as hour 0 and delay is compared to control group treated only with vehicle. Treatment groups included: P4 in fish oil (vaginal, nasal, injection and topical groups), P4 in cocoa butter (rectal) and P4 in sesame oil (oral). All treatment groups received a total daily dose of 30 mg P4/day except the nasal and subcutaneous injection group which received 1 mg/day and 4 mg/day, respectively. […]

cervix of pregnant rats = assay: Cervical ripening assessed in vivo by collagen light-induced fluorescence (LIF) with the collascope; design: species or system Sprague-Dawley rats
Description: as §1, §2
The amount of cervical collagen was evaluated in vivo (only in group subcutaneously P4, vaginal P4, subcutaneously 17P, vaginal promegestone (R5020), subcutaneously RU-486) by measurement of the auto-fluorescent properties of cross-linked collagen with a new prototype of an instrument, termed collascope (Reproductive Research Technologies, Houston, Tex., USA), as used previously with an earlier prototype.
After insertion of a small speculum into the vagina of the anesthetized animal, the optical probe of the collascope was placed on the surface of the exocervix. […] The exposure time for excitation was 100 msec. The average of 20 measurements of the detected fluorescent intensity (photon count) at 390 nm was used for each animal at any given time. Measurements of cervical light-induced fluorescence (LIF) were performed on nonpregnant animals once and in pregnant animals every other day starting at day 13 of gestation until delivery and on postpartum day 3 and/or postpartum day 5 (see FIGS. 2 and 3), and for some animals also on postpartum days 7 and 10 (see FIGS. 1 and 3).
The cervical LIFs obtained at different times of gestation (FIG. 1) were compared using one-way analysis of variance (ANOVA) and multiple pairwise comparison procedures (Holm-Sidak). […]

myometrium = settings: P4 at concentrations equivalent to those present in the placenta and uterus; cited from earlier work
[1] = Plasma progesterone levels in pregnant rats after various treatments; format: in vivo
Procedure: FIG. 6 depicts plasma levels of progesterone following various treatments. Plasma progesterone (P4) levels in pregnant rats at day 18 and 21 days of gestation after treatment with P4 vaginal gel (15 mg bid), P4 injections (4 mg subcutaneous daily), topical P4 in fish oil (15 mg bid) and controls (Ctr) treated with vehicles. FIG. 24 depicts pharmokinetic data related to plasma serum levels after topical delivery in rats following various treatments on day 19 of gestation (single treatment only).

[2] = single treatment only on day 19 of gestation

SMILES: CC(=O)[C@H]1CC[C@H]2[C@@H]3CCC4=CC(=O)CC[C@]4(C)[C@H]3CC[C@]12C [P4, progesterone]
- delay of delivery compared to controls (pregnant rats; P4 30 mg/day in DHA (docosahexanoic acid) from day 20): significant delays when compared to controls
- delay of delivery compared to controls (pregnant rats; P4 30 mg/day in EPA (eicosapentanoic acid) from day 20): All treatment groups except EPA had significant delays
- delay of delivery compared to controls (pregnant rats; P4 30 mg/day in GNC Triple Strength fish oil from day 20): significant delays when compared to controls
- delay of delivery compared to controls (pregnant rats; P4 30 mg/day in Neptune Krill Oil from day 20): significant delays when compared to controls
- delay of delivery compared to controls (pregnant rats; P4 30 mg/day in Nutrasea fish oil from day 20): significant delays when compared to controls
- delay of delivery compared to controls (pregnant rats; P4 30 mg/day in Nutrasea+D fish oil from day 20): significant delays when compared to controls
- delay of delivery compared to controls (pregnant rats; P4 30 mg/day in Omegasorb GNC fish oil from day 20): complete block of delivery
- delay of delivery (pregnant rats; P4 in fish oil, s.c. or topical, all groups begun on days 19, 20, 21 or 22): significant delay of delivery
- block of delivery (pregnant rats; P4 in fish oil, subcutaneous injection begun on day 21): complete block in all animals
- block of delivery (pregnant rats; P4 in fish oil, topical application begun on day 19): complete block in all animals
- delivery (pregnant rats; P4 in fish oil, treatment begun just prior to delivery on day 22): blocked or significantly delayed
- effect on delivery (pregnant rats; oral P4 15 mg bid by gavage in sesame oil or H2O from day 13): Delivery was not changed; also recorded: no effect on time of delivery
- delay of delivery compared to vehicle control (pregnant rats; rectal P4 in cocoa butter, 30 mg P4/day): significant delay of delivery
- effect on delivery (pregnant rats; s.c. injection daily in sesame oil from day 13 (P4 4 mg, 17P 10 mg, R5020 2 mg)): inhibits delivery; also recorded: completely blocked delivery; also recorded: prevented delivery; also recorded: completely inhibited; also recorded: delivery is inhibited
- delay of delivery compared to vehicle control (pregnant rats; subcutaneous injection of P4 in fish oil, 4 mg/day): significant delay of delivery
- delay of delivery (pregnant rats; topical P4 15 mg bid in Omegasorb fish oil from day 19): significant delay of delivery
- effect on delivery (pregnant rats; topical P4 15 mg bid in Replens from day 13): Delivery was not changed; also recorded: not at all
- delay of delivery (pregnant rats; topical P4 15 mg bid in coconut oil from day 19): significant delay of delivery
- delay of delivery (pregnant rats; topical P4 15 mg bid in corn oil from day 19): All groups but corn oil had significant delay of delivery
- effect on delivery (pregnant rats; topical P4 15 mg bid in fish oil from day 13): inhibits delivery; also recorded: completely
- delay of delivery (pregnant rats; topical P4 15 mg bid in olive oil from day 19): significant delay of delivery
- effect on delivery (pregnant rats; topical P4 15 mg bid in sesame oil from day 13): inhibits delivery; also recorded: only partially
- delay of delivery compared to vehicle control (pregnant rats; topical P4 in fish oil, 30 mg P4/day): significant delay of delivery
- effect on delivery (pregnant rats; vaginal bid from day 13 (P4 15 mg as Crinone; R5020 1 mg in Replens)): Delivery was not changed; also recorded: failed to inhibit delivery; also recorded: no effect on cervical ripening and on delivery; also recorded: no significant effect on delaying term delivery
- cervical LIF, day 25 (delayed delivery) in P4 injection group compared to control animals at day 21 (cervix of pregnant rats; P4 4 mg s.c. daily from day 13): no difference (P<0.05)
- cervical LIF / cervical ripening compared with vehicle controls (cervix of pregnant rats; P4 4 mg s.c. daily in sesame oil from day 13 of pregnancy): cervix is rigid; also recorded: significantly (P<0.05) higher; also recorded: longest effect on delaying cervical ripening; also recorded: also prevents further ripening on day 21; also recorded: can only delay, but not completely inhibit cervical ripening; also recorded: delayed but not entirely blocked during the final days of gestation
- cervical LIF / cervical ripening compared with vehicle controls (cervix of pregnant rats; vaginal P4 15 mg bid (Crinone) from day 13): no significant differences (P>0.05); also recorded: no effect on cervical ripening; also recorded: no significant differences are observed at any time
- spontaneous myometrial contractility (myometrium): inhibits spontaneous myometrial contractility
- plasma circulation levels of progesterone, topical compared to vaginal or subcutaneous injection ([1]; day 21, topical P4 in fish oil 15 mg bid vs vaginal gel 15 mg bid or 4 mg s.c. daily): highly effective in increasing plasma circulation levels of progesterone
- persistence of raised plasma levels following administration ([1]; single topical treatment on day 19 of gestation): persist for 1, 2, or more days
- plasma levels after topical delivery [1, 2]: increase markedly
- plasma levels after topical delivery compared with subcutaneous injection [1, 2]: even higher than subcutaneous injection
